Assay results from US8445689B2, “Pesticides” (Dow AgroSciences, LLC., priority 2008, dated 2013).
Read-outs that look alike come from different tables or passages of the source.

Key:
[1] = system: Green Peach Aphid (Myzus persicae); assay: Insecticidal test for green peach aphid in foliar spray assay on cabbage; format: in vivo; conditions: 72 h, read-out: Rating against green peach aphid on cabbage (foliar spray)
Description: Compounds 1-67 were tested against green peach aphid using procedures described hereinafter.
Insecticidal Test for Green Peach Aphid (Myzus persicae) in Foliar Spray Assay
Cabbage seedlings grown in 3-inch pots, with 2-3 small (3-5 cm) true leaves, were used as test substrate. The seedlings were infested with 20-50 green peach aphids (wingless adult and nymph) 1-2 d prior to chemical application. Four seedlings were used for each treatment. Compounds (2 mg) were dissolved in 2 mL of acetone-methanol (1:1) solvent, forming stock solutions of 1000 ppm. The stock solutions were diluted 5× with 0.025% Tween 20 in H2O to obtain a solution at 200 ppm. A hand-held Devilbiss aspirator sprayer was used for spraying a solution to both sides of cabbage leaves until runoff. Reference plants (solvent check) were sprayed with the diluent only. Treated plants were held in a holding room for 3 d at approximately 23° C. and 40% RH prior to grading. Evaluation was conducted by counting the number of live aphids per plant under a microscope. Insecticidal activity was measured by using Abbott's correction formula: Corrected % Control=100*(X−Y)/X • where X=No. of live aphids on solvent check plants • Y=No. of live aphids on treated plants

[2] = 200 ppm foliar spray on cabbage seedlings, graded after 3 d, corrected % control (Abbott)

| Compound | pest or weed control at 200 ppm [1, 2] [%] | melting point [°C] | pest or weed control at 200 ppm ([1]; foliar) [%] |
| --- | --- | --- | --- |
| CC(c1ccc(C(F)(F)F)nc1)S(C)(=O)=NC(=S)Nc1ccc(Cl)cc1 (stereo not drawn) [Compound 20] | < 80 | 181 to 183 |  |
| CC(c1ccc(C(F)(F)F)nc1)S(C)(=O)=N/C(N)=N/O (stereo not drawn) [Compound 38, N″-hydroxy-N-(methyl(oxido){1-[6-(trifluoromethyl)pyridin-3-yl]ethyl}-λ^4-sulfanylidene)guanidine] | 80 to 100 | 157 to 159 |  |
| CCO/N=C(\N)N=S(C)(=O)C(C)c1ccc(C(F)(F)F)nc1 (stereo not drawn) [Compound 49] | 80 to 100 |  |  |
| CC(c1ccc(C(F)(F)F)nc1)S(C)(=O)=N/C(N)=N/OCC1CO1 (stereo not drawn) [Compound 61] | 80 to 100 |  |  |
| CC(c1ccc(C(F)(F)F)nc1)S(C)(=O)=N/C(N)=N/OCCC=C(F)F (stereo not drawn) [Compound 56] | 80 to 100 |  |  |
| CC(c1ccc(C(F)(F)F)cc1)S(C)(=O)=NC(N)=S (stereo not drawn) [Compound 35, N-(methyl(oxido){1-[4-(trifluoromethyl)phenyl]ethyl}-λ^4-sulfanylidene)thiourea] | < 80 | 166 to 168 |  |
| C=CCO/N=C(\N)N=S(C)(=O)C(C)c1ccc(C(F)(F)F)nc1 (stereo not drawn) [Compound 53] | 80 to 100 |  |  |
| CC(c1ccc(C(F)(F)F)nc1)S(C)(=O)=NC(=N)N (stereo not drawn) [Compound 45, N-(methyl(oxido){1-[6-(trifluoromethyl)pyridin-3-yl]ethyl}-λ^4-sulfanylidene)guanidine] | < 80 |  |  |
| CS(=O)(=N/C(N)=N/O)C(C/C=C/Cl)c1ccc(Cl)nc1 (stereo not drawn) [Compound 41, N-[[(3E)-4-Chloro-1-(6-chloropyridin-3-yl)but-3-enyl](methyl)oxido-λ^4-sulfanylidene]-N″-hydroxyguanidine] | < 80 |  |  |
| CC(c1ccc(C(F)(F)F)nc1)S(C)(=O)=NC(=S)N1CCCCC1 (stereo not drawn) [Compound 26] | 80 to 100 |  |  |
| CNC(=S)N=S(C)(=O)C(C)c1ccc(C(F)(F)F)nc1 (stereo not drawn) [Compound 13] | 80 to 100 |  |  |
| CS(=O)(Cc1ccc(C(F)(F)F)nc1)=N/C(N)=N/O (stereo not drawn) [Compound 42, N′-hydroxy-N-(methyl(oxido){[6-(trifluoromethyl)pyridin-3-yl]methyl}-λ^4-sulfanylidene)guanidine] | 80 to 100 |  |  |
| CC(c1ccc(C(F)(F)F)nc1)S(C)(=O)=NC(=S)NCc1ccco1 (stereo not drawn) [Compound 8] | 80 to 100 |  |  |
| CCOC(=O)NC(=S)N=S(C)(=O)C(C)c1ccc(C(F)(F)F)nc1 (stereo not drawn) [Compound 19] |  |  | 80 to 100 |
| CC(c1ccc(C(F)(F)F)nc1)S(C)(=O)=NC(=S)Nc1ccc(OC(F)(F)F)cc1 (stereo not drawn) [Compound 21] | < 80 | 149 to 151 |  |
| COc1ccc(CO/N=C(\N)N=S(C)(=O)C(C)c2ccc(C(F)(F)F)nc2)cc1 (stereo not drawn) [Compound 47] | 80 to 100 |  |  |
| COCCO/N=C(\N)N=S(C)(=O)C(C)c1ccc(C(F)(F)F)nc1 (stereo not drawn) [Compound 60] | 80 to 100 |  |  |
| CC(c1ccc(C(F)(F)F)nc1)S(C)(=O)=NC(=O)C(C)(C)C (stereo not drawn) [Compound 67, 2,2-dimethyl-N-(methyl(oxido){1-[6-(trifluoromethyl)pyridin-3-yl]ethyl}-λ^4-sulfanylidene)propanamide] | < 80 |  |  |
| CO/N=C(\N)N=S(C)(=O)C(C)c1ccc(C(F)(F)F)nc1 (stereo not drawn) [Compound 48] | 80 to 100 |  |  |
| CC(C)O/N=C(\N)N=S(C)(=O)C(C)c1ccc(C(F)(F)F)nc1 (stereo not drawn) [Compound 50] | 80 to 100 |  |  |
| CS(=O)(Cc1ccc(C(F)(F)F)nc1)=NC(N)=S (stereo not drawn) [Compound 29, N-(methyl(oxido){[6-(trifluoromethyl)pyridin-3-yl]methyl}-λ^4-sulfanylidene)thiourea] | 80 to 100 |  |  |
| CC(c1ccc(C(F)(F)F)nc1)S(C)(=O)=NC(=S)N1CCCC1 (stereo not drawn) [Compound 25] | 80 to 100 |  |  |
| CC(c1ccc(C(F)(F)F)nc1)S(C)(=O)=N/C(N)=N/OCC1CC1(F)F (stereo not drawn) [Compound 52] | 80 to 100 |  |  |
| COc1ccc(C(=O)NC(=S)N=S(C)(=O)C(C)c2ccc(C(F)(F)F)nc2)cc1 (stereo not drawn) [Compound 17] | 80 to 100 |  |  |
| CCOC(=O)CNC(=S)N=S(C)(=O)C(C)c1ccc(C(F)(F)F)nc1 (stereo not drawn) [Compound 12] | 80 to 100 |  |  |

| Compound | pest or weed control at 200 ppm [1, 2] [%] | melting point [°C] | pest or weed control at 200 ppm ([1]; foliar) [%] |
| --- | --- | --- | --- |
| CCNC(=S)N=S(C)(=O)C(C)c1ccc(C(F)(F)F)nc1 (stereo not drawn) [Compound 6] | 80 to 100 |  |  |
| CC(c1ccc(C(F)(F)F)nc1)S(C)(=O)=NC(=O)C(F)F (stereo not drawn) [Compound 66, 2,2-difluoro-N-(methyl(oxido){1-[6-(trifluoromethyl)pyridin-3-yl]ethyl}-λ^4-sulfanylidene)acetamide] | 80 to 100 |  |  |
| CC(c1ccc(C(F)(F)F)nc1)S(C)(=O)=N/C(N)=N/OCc1ccc(Cl)cc1 (stereo not drawn) [Compound 46, N′-[(4-chlorobenzyl)oxy]-N-(methyl(oxido) {1-[6-(trifluoromethyl)pyridin-3-yl]ethyl}-λ^4-sulfanylidene)guanidine] | 80 to 100 |  |  |
| CC(c1ccc(C(F)(F)F)nc1)S(C)(=O)=NC(=S)Nc1cccnc1 (stereo not drawn) [Compound 4, N-(methyl(oxido){1-[6-(trifluoromethyl)pyridin-3-yl]ethyl}-λ^4-sulfanylidene)-N′-pyridin-3-ylthiourea] | < 80 |  |  |
| CC(c1ccc(C(F)(F)F)nc1)S(C)(=O)=NC(=O)NC(=O)CCl (stereo not drawn) [Compound 3, N-(chloroacetyl)-N′-(methyl(oxido){1-[6-(trifluoromethyl)pyridin-3-yl]ethyl}-λ^4-sulfanylidene)urea] | 80 to 100 |  |  |
| CN/C(N=S(C)(=O)C(C)c1ccc(C(F)(F)F)nc1)=N\OC (stereo not drawn) [Compound 63, N″-methoxy-N-methyl-N′-(methyl(oxido){1-[6-(trifluoromethyl)pyridin-3-yl]ethyl}-λ^4-sulfanylidene)guanidine] | 80 to 100 |  |  |
| Cc1ccc(C(C)S(C)(=O)=NC(=S)NC(=O)OCC2c3ccccc3-c3ccccc32)cn1 (stereo not drawn) [Compound 32, 9H-fluoren-9-ylmethyl({methyl[1-(6-methylpyridin-3-yl)ethyl]oxido-λ^4-sulfanylidene}amino)carbonothioylcarbamate] |  |  | < 80 |
| CC(c1ccc(C(F)(F)F)nc1)S(C)(=O)=N/C(=N/OCc1ccc(Cl)cc1)NCc1ccc(Cl)cc1 (stereo not drawn) [Compound 57] | < 80 |  |  |
| COC(=O)C(C)NC(=S)N=S(C)(=O)C(C)c1ccc(C(F)(F)F)nc1 (stereo not drawn) [Compound 10] | 80 to 100 |  |  |
| CC(c1ccc(C(F)(F)F)nc1)S(C)(=O)=NC(=S)N(C)C (stereo not drawn) [Compound 23, N,N-dimethyl-N′-(methyl(oxido){1-[6-(trifluoromethyl)pyridin-3-yl]ethyl}-λ^4-sulfanylidene)thiourea] | 80 to 100 |  |  |
| CS(=O)(=N/C(N)=N/O)C(CC1CC1)c1ccc(C(F)(F)F)nc1 (stereo not drawn) [Compound 43, N-[{2-cyclopropyl-1-[6-(trifluoromethyl)pyridin-3-yl]ethyl}(methyl)oxido-λ^4-sulfanylidene]-N″-hydroxyguanidine] | 80 to 100 |  |  |
| CC(c1ccc(C(F)(F)F)nc1)S(C)(=O)=NC(=S)NC(=O)c1ccco1 (stereo not drawn) [Compound 18] | 80 to 100 |  |  |
| CC(=O)O/N=C(\N)N=S(C)(=O)C(C)c1ccc(C(F)(F)F)nc1 (stereo not drawn) [Compound 44, N″-(acetyloxy)-N-(methyl(oxido){1-[6-(trifluoromethyl)pyridin-3-yl]ethyl}-λ^4-sulfanylidene)guanidine] | 80 to 100 |  |  |
| CCN(CC)C(=S)N=S(C)(=O)C(C)c1ccc(C(F)(F)F)nc1 (stereo not drawn) [Compound 24] | 80 to 100 |  |  |
| CC(c1ccc(C(F)(F)F)nc1)S(C)(=O)=NC(=S)N1CCOCC1 (stereo not drawn) [Compound 27] | 80 to 100 |  |  |
| CC(c1ccc(C(F)(F)F)nc1)S(C)(=O)=N/C(N)=N/OCCF (stereo not drawn) [Compound 59] | 80 to 100 |  |  |
| CS(=O)(=N/C(N)=N/O)C(CC1CC1)c1ccc(Cl)nc1 (stereo not drawn) [Compound 40, N-[[1-(6-chloropyridin-3-yl)-2-cyclopropylethyl](methyl)oxido-λ^4-sulfanylidene]-N″-hydroxyguanidine] | < 80 |  |  |
| CC(c1ccc(C(F)(F)F)nc1)S(C)(=O)=N/C(N)=N/OCCCCF (stereo not drawn) [Compound 55] | 80 to 100 |  |  |
| COc1ccc(CN/C(N=S(C)(=O)C(C)c2ccc(C(F)(F)F)nc2)=N\OCc2ccc(OC)cc2)cc1 (stereo not drawn) [Compound 58] | 80 to 100 |  |  |
| CC(c1ccc(C(F)(F)F)nc1)S(C)(=O)=N/C(N)=N/OCC1CC1 (stereo not drawn) [Compound 51] | 80 to 100 |  |  |
| CC(C)O/N=C(\N)N=S(C)(=O)C(C/C=C/Cl)c1ccc(Cl)nc1 (stereo not drawn) [Compound 64, N-[[(3E)-4-Chloro-1-(6-chloropyridin-3-yl)but-3-enyl](methyl)oxido-λ^4-sulfanylidene]-N″-isopropoxyguanidine] | < 80 |  |  |
| CC(c1ccc(C(F)(F)F)nc1)S(C)(=O)=NC(=S)NC(=O)c1ccc(Cl)cc1 (stereo not drawn) [Compound 16] | 80 to 100 |  |  |
| CC(c1ccc(C(F)(F)F)nc1)S(C)(=O)=N/C(N)=N/OCCCF (stereo not drawn) [Compound 54] | 80 to 100 |  |  |
| CS(=O)(=NC(=O)Nc1ccc(C(F)(F)F)cc1)c1ccc(Cl)cc1 (stereo not drawn) [Compound 1, N-[(4-chlorophenyl)(methyl)oxido-λ^4-sulfanylidene]-N′-[4-(trifluoromethyl)phenyl]urea] |  | 131 to 134 |  |
| CC(c1ccc(C(F)(F)F)nc1)S(C)(=O)=NC(=S)NCCN1CCOCC1 (stereo not drawn) [Compound 11] | 80 to 100 |  |  |
